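Where inhibition never reached the appropriate level, the endpoint shown equals the highest concentration tested. Otherwise, values were interpolated linearly from a five-concentration, 48-hour dose response in 96-well plates. TGI denotes the concentration required for complete inhibition of growth.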 Where only a bound is given, the exact number is not on record here.

One assay has as its system A498 renal. Put plainly: NCI anticancer screen, dose series, 48 h.
For the molecule `O=C1C/C(=C/c2ccc(/C=C3/CC(=O)N(c4cccc(Br)c4)C3=O)cc2)C(=O)N1c1cccc(Br)c1`, the TGI was greater than 100 µM.
On the same count and under the same terms, to `CN(C(=O)C12C3C4C1C1C2C3C41I)C(C)(C)C` (stereo not given) belongs greater than 100 µM; to `CC#COP(=O)(OCC)OCC`, greater than 100 µM.
`COc1ccc(/C=C(\Cl)c2ccc(OC)c(OC)c2)cc1OC` yielded a TGI greater than 100 µM.
Same read-out and setting: to `Cc1c2ccncc2cc2c1sc1ccncc12` belongs 13.8 µM; to `C=CCONC(=O)c1ccc(Cl)cc1`, greater than 100 µM.
Still for that read-out and setting: to `O=C(CC1Sc2ccccc2NC1=O)Nc1cc(Cl)ccc1Cl` (stereo not given) belongs greater than 100 µM; to `O=C(CCn1[nH]c(=O)c(Cl)c(Cl)c1=O)NOCCCc1ccccc1`, greater than 100 µM; to `C/C(=N\N)C(CN(C)C)C(c1ccccc1)c1c(O)c2ccccc2oc1=O` (stereo not given), greater than 100 µM.
The same measure, in the same setting: to `c1ccc(Nc2nnc(CSc3nc(-c4ccccc4)c(-c4ccccc4)[nH]3)s2)cc1` belongs 49.1 µM.

The next assay deals with CCRF-CEM leukemia. The assay can be described thus: NCI anticancer screen, dose series, 48 h.
`O=C1C/C(=C/c2ccc(/C=C3/CC(=O)N(c4cccc(Br)c4)C3=O)cc2)C(=O)N1c1cccc(Br)c1`: the TGI is greater than 100 µM.
The molecule `CCCCCCn1c(SCC)c2ccccc2c1-c1nc(F)nc(F)n1` displayed a TGI greater than 100 µM.
The same measure, in the same setting: to `CN(C(=O)C12C3C4C1C1C2C3C41I)C(C)(C)C` (stereo not given) belongs greater than 43 µM; to `CC(=O)/C(=C\c1ccco1)C(=O)Nc1ccccc1`, greater than 100 µM; to `NCC1(N2CCOCC2)C2CCCC21CO` (stereo not given), greater than 100 µM.
On the same count and under the same terms, under `CC#COP(=O)(OCC)OCC` stands greater than 100 µM; under `COc1ccc(/C=C(\Cl)c2ccc(OC)c(OC)c2)cc1OC`, greater than 100 µM.
The same measure, in the same setting: to `Cc1c2ccncc2cc2c1sc1ccncc12` belongs 5.32 µM; to `C=CCONC(=O)c1ccc(Cl)cc1`, greater than 100 µM; to `O=C(CC1Sc2ccccc2NC1=O)Nc1cc(Cl)ccc1Cl` (stereo not given), greater than 100 µM.
Consider `O=C(CCn1[nH]c(=O)c(Cl)c(Cl)c1=O)NOCCCc1ccccc1`, for which the TGI is greater than 100 µM.
The same measure, in the same setting: to `CC(C)=CCCC1(C)C=Cc2c(c(C)cc3c2[nH]c2cc(O)ccc23)O1` (stereo not given) belongs greater than 25 µM.
Consider `C/C(=N\N)C(CN(C)C)C(c1ccccc1)c1c(O)c2ccccc2oc1=O` (stereo not given), for which the TGI was greater than 100 µM.
The same measure, in the same setting: under `c1ccc(Nc2nnc(CSc3nc(-c4ccccc4)c(-c4ccccc4)[nH]3)s2)cc1` stands 49.1 µM.

The subject of the next assay is M19-MEL melanoma. Put plainly: NCI anticancer screen, dose series, 48 h.
`O=C1C/C(=C/c2ccc(/C=C3/CC(=O)N(c4cccc(Br)c4)C3=O)cc2)C(=O)N1c1cccc(Br)c1` came in with a TGI greater than 100 µM.
Same read-out and setting: to `CCCCCCn1c(SCC)c2ccccc2c1-c1nc(F)nc(F)n1` belongs greater than 100 µM; to `CN(C(=O)C12C3C4C1C1C2C3C41I)C(C)(C)C` (stereo not given), greater than 100 µM; to `CC(=O)/C(=C\c1ccco1)C(=O)Nc1ccccc1`, greater than 100 µM.
The same measure, in the same setting: to `NCC1(N2CCOCC2)C2CCCC21CO` (stereo not given) belongs greater than 100 µM; to `CC#COP(=O)(OCC)OCC`, greater than 100 µM.
On the same count and under the same terms, under `COc1ccc(/C=C(\Cl)c2ccc(OC)c(OC)c2)cc1OC` stands greater than 100 µM.
As for `Cc1c2ccncc2cc2c1sc1ccncc12`, the TGI worked out at 16.6 µM.
Same read-out and setting: under `C=CCONC(=O)c1ccc(Cl)cc1` stands greater than 100 µM.
Same read-out and setting: under `O=C(CC1Sc2ccccc2NC1=O)Nc1cc(Cl)ccc1Cl` (stereo not given) stands greater than 100 µM; under `O=C(CCn1[nH]c(=O)c(Cl)c(Cl)c1=O)NOCCCc1ccccc1`, greater than 100 µM.
Same read-out and setting: under `CC(C)=CCCC1(C)C=Cc2c(c(C)cc3c2[nH]c2cc(O)ccc23)O1` (stereo not given) stands greater than 25 µM; under `C/C(=N\N)C(CN(C)C)C(c1ccccc1)c1c(O)c2ccccc2oc1=O` (stereo not given), greater than 100 µM.
In the case of `c1ccc(Nc2nnc(CSc3nc(-c4ccccc4)c(-c4ccccc4)[nH]3)s2)cc1`, the TGI is 28.6 µM.

Another assay deals with MOLT-4 leukemia. Put plainly: NCI anticancer screen, dose series, 48 h.
The molecule `O=C1C/C(=C/c2ccc(/C=C3/CC(=O)N(c4cccc(Br)c4)C3=O)cc2)C(=O)N1c1cccc(Br)c1` yielded a TGI of 98.6 µM.
On the same count and under the same terms, under `CCCCCCn1c(SCC)c2ccccc2c1-c1nc(F)nc(F)n1` stands greater than 100 µM; under `CN(C(=O)C12C3C4C1C1C2C3C41I)C(C)(C)C` (stereo not given), greater than 47.3 µM; under `CC(=O)/C(=C\c1ccco1)C(=O)Nc1ccccc1`, greater than 100 µM.
Still for that read-out and setting: under `NCC1(N2CCOCC2)C2CCCC21CO` (stereo not given) stands greater than 100 µM; under `CC#COP(=O)(OCC)OCC`, greater than 100 µM.
Turning to `COc1ccc(/C=C(\Cl)c2ccc(OC)c(OC)c2)cc1OC`, the TGI is greater than 100 µM.
The same measure, in the same setting: to `Cc1c2ccncc2cc2c1sc1ccncc12` belongs 2.45 µM; to `C=CCONC(=O)c1ccc(Cl)cc1`, greater than 100 µM; to `O=C(CC1Sc2ccccc2NC1=O)Nc1cc(Cl)ccc1Cl` (stereo not given), greater than 100 µM.
Still for that read-out and setting: under `O=C(CCn1[nH]c(=O)c(Cl)c(Cl)c1=O)NOCCCc1ccccc1` stands greater than 100 µM.
On the same count and under the same terms, to `CC(C)=CCCC1(C)C=Cc2c(c(C)cc3c2[nH]c2cc(O)ccc23)O1` (stereo not given) belongs greater than 25 µM.
In the case of `C/C(=N\N)C(CN(C)C)C(c1ccccc1)c1c(O)c2ccccc2oc1=O` (stereo not given), the TGI was greater than 100 µM.
Same read-out and setting: under `c1ccc(Nc2nnc(CSc3nc(-c4ccccc4)c(-c4ccccc4)[nH]3)s2)cc1` stands 29.8 µM.

Another assay deals with NCI-H23 lung. Put plainly: NCI anticancer screen, dose series, 48 h.
`O=C1C/C(=C/c2ccc(/C=C3/CC(=O)N(c4cccc(Br)c4)C3=O)cc2)C(=O)N1c1cccc(Br)c1`: the TGI is greater than 100 µM.
On to `CCCCCCn1c(SCC)c2ccccc2c1-c1nc(F)nc(F)n1`, for which the TGI was greater than 100 µM.
Same read-out and setting: under `CN(C(=O)C12C3C4C1C1C2C3C41I)C(C)(C)C` (stereo not given) stands greater than 100 µM.
Still for that read-out and setting: under `CC(=O)/C(=C\c1ccco1)C(=O)Nc1ccccc1` stands greater than 100 µM; under `NCC1(N2CCOCC2)C2CCCC21CO` (stereo not given), greater than 100 µM; under `CC#COP(=O)(OCC)OCC`, greater than 100 µM.
The molecule `COc1ccc(/C=C(\Cl)c2ccc(OC)c(OC)c2)cc1OC` had a TGI greater than 100 µM.
The same measure, in the same setting: under `Cc1c2ccncc2cc2c1sc1ccncc12` stands 10.7 µM.

Values taken from PubChem BioAssay (NCI).
